Reference: patent US12427155B2, “Treatment for tau-related diseases” (The Regents of the University of California, priority 2019, dated 2025)
Entries after “also recorded” stand apart in the source; their conditions may differ. Read-outs that look alike come from different tables or passages of the source. Where a SMILES comes first, the peptide text is derived from it. The star is where a group is joined. Cbz = O=C(OCc1ccccc1)*

Tests used:
pThr231Tau/tTau [1] = experiment: pThr231Tau/tTau ratio (ELISA) in APP^dp iPSC-derived FAD neurons; assay type: cell-based, human; details: for abrogation of the atorvastatin-induced decrease in pThr231Tau/tTau ratio: 3 days; for pThr231Tau/tTau, dosage effect: dose range
APP^dp1-6 neurons [2] = experiment: lipid analysis of APP^dp1-6 neurons; assay type: cell-based, human; details: 3 days
Tau (PHF-1) = experiment: PHF-1 (Tau) staining of 4RTau-tg mouse brain sections; assay type: in vivo; details: 4R Tau-tg mice, 25 mg/kg daily oral gavage, 3 months
Description: FIGS. 7A-7D show PHF-1 staining of 4RTau-tg mouse sections. […] (FIG. 7A) Representative sections stained for PHF-1. Low power images show areas of enlargements where measurements were obtained. (FIGS. 7B-7D) Sections were analyzed with video bright field microscopy and immunoreactivity was quantified as corrected optical density. * indicated p<0.05 compared to vehicle treated 4RTau-tg mice, ** indicates p<0.005 compared to vehicle treated 4RTau-tg mice. Scale bar=200 μm in low power images and 20 μm in higher power images.
Following treatment, mice were sacrificed, brains removed and sectioned along the sagittal axis with half flash frozen and half drop fixed in 4% PFA. Fixed brains were sectioned with a vibratome (40 μm) and stained for GFAP, PHF1 (Tau) or Synaptophysin. Sections were imaged with a Leica microscope with a digital camera and analyzed with ImageJ for optical density (GFAP, Synaptophysin) or % area of neuropil (PHF1). Statistics were conducted with Prism6 using ANOVA one way analysis with Tukey-Kramer post hoc analysis.

pThr231Tau/tTau [3] = experiment: pThr231Tau/tTau in non-demented control (NDC) neurons; details: NDC neurons with two copies of APP
pTau = experiment: immunofluorescence of pTau epitopes in APP^dp1-6 neurons; assay type: cell-based, human; details: 10 μM, 5 days
Description: Vehicle alone controls (DMSO) are shown in black. […] SER, selective estrogen […] (n=4). […] NF—H, neurofilament H, axonal marker. The pThr231Tau antibody used is TG3, which detects a conformational epitope of pThr231Tau. Scale bar, 100 μm.

Aβ42 secretion = experiment: secreted Aβ42 in APP-Δcholesterol neurons; assay type: cell-based, human; details: APP E693A and F691A+E693A neurons, 10 μM, 3 days
Description: FIGS. 4A-4F show regulation of Aβ by CE Is Mediated by a Cholesterol Binding Domain in APP. […] Green indicates amino acid sequence. Red arrow indicates CRISPR/Cas9 cut site. […] Two E693A (line 3D9 and 2B2) and one F691A+E693A line (line D12) were generated, as well as two non-gene-edited, but clonally expanded, WT lines (B10 and B11). FIGS. 4D-4F show measurements made using APP-Δcholesterol neurons with the following genotypes: WT (average from 2 independent lines), E693A (2 independent lines), and F691A+E693A (1 line) (mean±SEM, n R 3 per line). (D) Relative secreted Ab42 levels in conditioned media from purified CD184^−, CD44^−, and CD24^+ neurons (mean±SEM, n≥3 per line).

iPSC-derived astrocytes = test system: iPSC-derived astrocytes
Description: Scale bar, 10 μm. […] Astrocytic viability (blue line) was plotted against results from FIGS. 1D and S1A for statins (neuronal viability and pThr231Tau/Tau ratio).

APP^dp1-6 neurons [4] = experiment: cell viability of APP^dp1-6 iPSC-derived neurons; details: dose range
[5] = lower concentrations that sufficed to alter brain cholesterol metabolism; Mast et al., 2017b; cited from earlier work
[6] = human, in vivo; cited from earlier work
APP^dp1-6 neurons [7] = test system: APP^dp1-6 neurons
[8] = APP^dp1-6 neurons, 10 μM (FIG. 2C)
[9] = 0.5 mM single dose at t=0, with atorvastatin 10 μM, 5 days

Molecule: CC(C)C(O)CC[C@@H](C)[C@H]1CC[C@H]2[C@@H]3CC=C4C[C@@H](O)CC[C@]4(C)[C@H]3CC[C@]12C (some centres unmarked) [24-hydroxycholesterol]
- pThr231Tau/tTau (pThr231Tau/tTau [1]; [8]): reduced

Molecule: Clc1ccccc1CNCC1CCC(CNCc2ccccc2Cl)CC1 (centres unmarked) [AY-9944]
- pThr231Tau/tTau (pThr231Tau/tTau [1]; [8]): did significantly decrease; also recorded: minor effect
- 7DHC levels (APP^dp1-6 neurons [2]; 5 μM): increased
- 24-hydroxycholesterol in media (APP^dp1-6 neurons [2]; 5 μM): decreased
- desmosterol levels (APP^dp1-6 neurons [2]; 5 μM): reduced
- free cholesterol levels (APP^dp1-6 neurons [2]; 5 μM): reduced

Molecule: COc1ccc2cc3[n+](cc2c1OC)CCc1cc2c(cc1-3)OCO2 [Berberine]
- Tau accumulation in the CA1 region of the hippocampus (Tau (PHF-1)): no change

Molecule: COC(=O)[C@H](CC(C)C)NC(=O)c1ccc(NC[C@@H](N)CS)cc1-c1cccc2ccccc12 [GGTI-298]
- pThr231Tau/tTau (pThr231Tau/tTau [1]; [8]): did not significantly reduce

Molecule: Cc1cc(SCc2sc(-c3ccc(C(F)(F)F)cc3)nc2C)ccc1OCC(=O)O [GW50156]
- pThr231Tau/tTau (pThr231Tau/tTau [1]; [8]): did not decrease

Molecule: CSc1cc(C)nc(SC)c1NC(=O)CN1CCN(CCSc2nc3ccccc3[nH]2)CC1 [K604]
- pThr231Tau/tTau (pThr231Tau/tTau [1]; APP^dp1-6 neurons, 25 μM, 5-day treatment (FIG. 2G)): reduced
- pThr231Tau/tTau (pThr231Tau/tTau [3]): reduced

Molecule: CC(C)C[C@@H](C=O)NC(=O)[C@H](CC(C)C)NC(=O)[C@H](CC(C)C)NC(=O)OCc1ccccc1 [MG132] (Cbz-Leu-Leu-Leu-aldehyde)
- abrogation of the atorvastatin-induced decrease in pThr231Tau/tTau ratio (pThr231Tau/tTau [1]; 5 μM co-treated with atorvastatin 10 μM): abrogated the decrease

Molecule: C[C@@](O)(CCOP(=O)(O)OP(=O)(O)O)CC(=O)O [MVA-5PP, mevalonate-5-pyrophosphate]
- rescue of the effect of atorvastatin on pThr231Tau/tTau (pThr231Tau/tTau [1]): rescued

Molecule: C[C@@](O)(CCOP(=O)(O)O)CC(=O)O [MVP, mevalonate-5-phosphate]
- rescue of the effect of atorvastatin on pThr231Tau/tTau (pThr231Tau/tTau [1]; [9]): rescued

Molecule: O=S(=O)(c1ccccc1)N(CC(F)(F)F)c1ccc(C(O)(C(F)(F)F)C(F)(F)F)cc1 [T091317]
- pThr231Tau/tTau (pThr231Tau/tTau [1]; [8]): reduced
- 24-hydroxycholesterol in media (APP^dp1-6 neurons [2]; 10 μM): unaltered
- desmosterol levels (APP^dp1-6 neurons [2]; 10 μM): decreased

Molecule: F/C(COc1ccc2c(c1)[nH]c1ccccc12)=C1/CN2CCC1CC2 [YM-53601]
- pThr231Tau/tTau (pThr231Tau/tTau [1]; APP^dp1-6 neurons, 20 μM (FIG. 2C)): did significantly decrease

Molecule: CC(C)c1c(C(=O)Nc2ccccc2)c(-c2ccccc2)c(-c2ccc(F)cc2)n1CC[C@@H](O)C[C@@H](O)CC(=O)O [atorvastatin]
- pThr231Tau/Tau after removal of compound (pThr231Tau/tTau [1]; removal after five days of treatment): recovery
- pS202/T205Tau by immunofluorescence (pTau): reduced
- pS396/S404Tau by immunofluorescence (pTau): reduced
- pThr231 phosphorylation-dependent conformational Tau epitope (TG3) by immunofluorescence (pTau): reduced
- 7DHC levels (APP^dp1-6 neurons [2]; 10 μM): trended towards decreased
- 24-hydroxycholesterol in media (APP^dp1-6 neurons [2]; 10 μM): unaltered
- desmosterol levels (APP^dp1-6 neurons [2]; 10 μM): reduced
- Aβ42 secretion (Aβ42 secretion): did not affect
- astrocyte viability (iPSC-derived astrocytes): induced major astrocyte cell-death
- cell viability or neuronal number (APP^dp1-6 neurons [4]): slightly cytotoxic at higher concentrations
- pThr231Tau/tTau (pThr231Tau/tTau [3]): reduced

Molecule: CC(C)c1cc(C(C)C)c(CC(=O)NS(=O)(=O)Oc2c(C(C)C)cccc2C(C)C)c(C(C)C)c1 [avasimibe]
- pThr231Tau/tTau (pThr231Tau/tTau [1]; APP^dp1-6 neurons, 10 μM, 5-day treatment (FIG. 2G)): reduced
- pThr231Tau/tTau (pThr231Tau/tTau [3]): reduced

Molecule: O=C1Nc2ccc(Cl)cc2[C@@](C#CC2CC2)(C(F)(F)F)O1 [efavirenz, (S)-6-chloro-(cyclopropylethynyl)-1,4-dihydro-4-(trifluoromethyl)-2H-3,1-benzoxazin-2-one]
- astrocyte viability (iPSC-derived astrocytes): did not affect astrocyte viability even at high doses
- adverse effects in mice [5]: Major adverse effects were not observed
- adverse effects in HIV patients [6]: significant adverse effects that include neurotoxicity

Molecule: CC[C@H](C)C(=O)O[C@H]1C[C@@H](C)C=C2C=C[C@H](C)[C@H](CC[C@@H]3C[C@@H](O)CC(=O)O3)[C@H]21 [lovastatin]
- pThr231Tau/tTau, dosage effect (pThr231Tau/tTau [1]; APP^dp1-6 neurons): reduced pThr231Tau/tTau in a dose-dependent manner
- cell viability or neuronal number (APP^dp1-6 neurons [4]): minor effects

Molecule: CC[C@H](C)C(=O)O[C@H]1CCC=C2C=C[C@H](C)[C@H](CC[C@@H]3C[C@@H](O)CC(=O)O3)[C@H]21 [mevastatin]
- pThr231Tau/tTau, dosage effect (pThr231Tau/tTau [1]; APP^dp1-6 neurons): reduced pThr231Tau/tTau in a dose-dependent manner
- cell viability or neuronal number (APP^dp1-6 neurons [7]): minor effects

Molecule: C=C1[C@@H](O)[C@@H]2O[C@]3(CC[C@H](/C=C/[C@@H](C)[C@@H]4CC(C)=C[C@@]5(O[C@H](C[C@@](C)(O)C(=O)O)CC[C@H]5O)O4)O3)CC[C@H]2O[C@@H]1[C@@H](O)C[C@H](C)[C@H]1O[C@@]2(CCCCO2)CC[C@H]1C [okadaic acid]
- abrogation of the atorvastatin-induced decrease in pThr231Tau/tTau ratio (pThr231Tau/tTau [1]; 1.25 nM co-treated with atorvastatin 10 μM): Only proteasomal inhibition abrogated the decrease

Molecule: CC(C)c1nc(N(C)S(C)(=O)=O)nc(-c2ccc(F)cc2)c1/C=C/[C@@H](O)C[C@@H](O)CC(=O)O [rosuvastatin]
- pThr231Tau/tTau, confirmed non-toxic screening hit (pThr231Tau/tTau [1]; APP^dp1-6 neurons, 5 μM, 5 days): hit-list

Molecule: mevalonate [MVA]
- rescue of the effect of atorvastatin on pThr231Tau/tTau (pThr231Tau/tTau [1]; [9]): rescued
